Measured values taken from patent publication US20090324691A1, “METHODS AND OPHTHALMIC DEVICES USED IN THE TREATMENT OF OCULAR ALLERGIES” (priority 2008, published 2009).
Counter-ions that a name gives are not always drawn.

Legend:
[1] = concentrations higher than 0.025% (0.25 mg/mL), topical solution; cited from earlier work
[2] = Uptake of ketotifen fumarate to an ophthalmic device over time (FIG. 1); type: physicochemical; details: 3.0 mL of 43 ug/mL ketotifen fumarate packing solution per lens
Experimental: FIG. 1 illustrates the uptake of ketotifen fumarate to an ophthalmic device over time.
Three lots of 1-Day Acuvue® Brand Contact Lenses (etafilcon A) were cured and hydrated with deionized water. These lenses were inserted into glass vials containing 3.0 mL of a 43 ug/mL ketotifen fumarate packing solution per lens (packing solution formulation: borate buffered saline containing 0.83% sodium chloride, 0.9% boric acid, 100 ug/mL of dicalcium DTPA, and 0.1% sodium borate decahydrate ). The soaked and harvested at 5, 15, 30, 90 and 180 minutes and extracted and assayed as in Example 1 to determine the amount of ketotifen per treated lens. This graph illustrates that a minimum effective amount of in an etafilcon A contact lens is attained within 15 minutes of treatment.

time of treatment to attain a minimum effective amount in an etafilcon A contact lens [2]: ≤ 15 min
Compound: CN1CCC(=C2c3ccccc3CC(=O)c3sccc32)CC1 [ketotifen fumarate]
ocular tolerability of higher concentrations [1]: sting and burn upon initial administration to the eye
